Structures can show the parent of a compound that is named as a salt. Where two headings read alike, the source gives them in different places.
Columns and labels:
[1] = molecular target: T1, SARS-CoV-2 PLpro (nsp3 1564–1878) (Severe acute respiratory syndrome coronavirus 2, UniProt P0DTD1); test: biochemical; parameters: FRET-quenched peptide (Pro3) cleavage by PLpro, 10 min pre-incubation, slope over 20 min, normalised to no-compound control; conditions: high concentration screen, read-out: % of control remaining
[2] = molecular target: T1, SARS-CoV-2 PLpro (nsp3 1564–1878); test: biochemical; parameters: FRET-quenched peptide (Pro3) cleavage by PLpro, 10 min pre-incubation, slope over 20 min, normalised to no-compound control; conditions: low concentration screen, read-out: % of control remaining

Question: For `CCCCCCCCCCCCCCCC(=O)OC/C=C(C)/C=C/C=C(C)/C=C/C1=C(C)CCCC1(C)C` [Retinyl palmitate], which remaining activity at 3.75 µM ([1]; Well no.=4134) is on record?
Answer: 97.6%

Question: What about the remaining activity at 1.25 µM ([2]; Well no.=4134) of the same compound?
Answer: 96.7%

Question: What does the source list for `COCCOc1ccc(N2CCN(CCn3ncc4c3nc(N)n3nc(-c5ccco5)nc43)CC2)cc1` [Preladenant]?
Answer: remaining activity at 3.75 µM ([1]; Well no.=7141): 102%; remaining activity at 1.25 µM ([2]; Well no.=7141): 102%

Question: For `c1ccc2c(-c3ccncc3)c[nH]c2c1` [Rho Kinase Inhibitor III, Rockout], which remaining activity at 3.75 µM ([1]; Well no.=2557) is on record?
Answer: 103%

Question: And the remaining activity at 1.25 µM ([2]; Well no.=2557)?
Answer: 101%

Question: `CN1C[C@@H]2c3ccccc3Oc3ccc(Cl)cc3[C@H]2C1` (racemic) [Asenapine (maleate)] was tested. Which remaining activity at 3.75 µM ([1]; Well no.=6513) did it give?
Answer: 103%

Question: What about the remaining activity at 1.25 µM ([2]; Well no.=6513) of the same compound?
Answer: 102%

Question: With `c1nc2c(NC3CCCCC3)nc(Nc3ccc(N4CCOCC4)cc3)nc2[nH]1` [Reversine] as the compound, how does the remaining activity at 3.75 µM ([1]; Well no.=2621) read?
Answer: 100%

Question: And the remaining activity at 1.25 µM ([2]; Well no.=2621)?
Answer: 98.6%

Question: With `N=C(NC(=O)c1nc(Cl)c(N)nc1N)Nc1ccccc1` [Phenamil methanesulfonate] as the compound, how does the remaining activity at 3.75 µM ([1]; Well no.=1313) read?
Answer: 99.6%

Question: What about the remaining activity at 1.25 µM ([2]; Well no.=1313) of the same compound?
Answer: 101%

Question: How did the remaining activity at 3.75 µM ([1]; Well no.=3186) turn out when `C[C@H]1CC[C@]2(NC1)O[C@H]1C[C@H]3[C@@H]4CC[C@H]5C[C@@H](O)CC[C@]5(C)[C@H]4CC[C@]3(C)[C@H]1[C@@H]2C` [Tomatidine] was run?
Answer: 99.4%

Question: What about the remaining activity at 1.25 µM ([2]; Well no.=3186) of the same compound?
Answer: 94.5%

Question: Which remaining activity at 3.75 µM ([1]; Well no.=5386) does the source give for `CN[C@@H]1Cc2cccc3[nH]c(=O)n(c23)C1` [Sumanirole maleate] here?
Answer: 104%

Question: What about the remaining activity at 1.25 µM ([2]; Well no.=5386) of the same compound?
Answer: 99.1%

Question: Which remaining activity at 3.75 µM ([1]; Well no.=3893) does the source give for `CC(C)c1cccc(=O)c(O)c1` [Hinokitiol] here?
Answer: 103%

Question: And the remaining activity at 1.25 µM ([2]; Well no.=3893)?
Answer: 105%

Question: What does the source list for `O=[N+]([O-])c1ccc(O[C@@H]2O[C@H](CO)[C@@H](O)[C@H](O)[C@H]2F)c([N+](=O)[O-])c1` [2,4-Dinitrophenyl 2-fluoro-2-deoxy-beta-D-glucopyranoside]?
Answer: remaining activity at 3.75 µM ([1]; Well no.=637): 101%; remaining activity at 1.25 µM ([2]; Well no.=637): 100%

Question: What does the source list for `O=S(=O)(NCc1ccccn1)c1ccc(Br)c2ccccc12` [Pyrabactin]?
Answer: remaining activity at 3.75 µM ([1]; Well no.=5918): 95.8%; remaining activity at 1.25 µM ([2]; Well no.=5918): 96.4%

Question: Which remaining activity at 3.75 µM ([1]; Well no.=8394) does the source give for `CC(C)(Oc1ccc(Cl)cc1)C(=O)O` [Clofibric Acid] here?
Answer: 81.1%

Question: And the remaining activity at 1.25 µM ([2]; Well no.=8394)?
Answer: 87%

Question: What does the source list for `C=CCN1CC[C@]23c4c5ccc(O)c4O[C@H]2/C(=N/N=C2\CC[C@@]4(O)[C@H]6Cc7ccc(O)c8c7[C@@]4(CCN6CC=C)[C@H]2O8)CC[C@@]3(O)[C@H]1C5` [Naloxonazine]?
Answer: remaining activity at 3.75 µM ([1]; Well no.=2062): 105%; remaining activity at 1.25 µM ([2]; Well no.=2062): 101%

Question: For `CN(C)CCCN1c2ccccc2Sc2ccc(Cl)cc21` [Chlorpromazine.HCl], which remaining activity at 3.75 µM ([1]; Well no.=1596) is on record?
Answer: 103%

Question: And the remaining activity at 1.25 µM ([2]; Well no.=1596)?
Answer: 104%

Question: For `O=C(CCCN1CC=C(n2c(=O)[nH]c3ccccc32)CC1)c1ccc(F)cc1` [Droperidol], which remaining activity at 3.75 µM ([1]; Well no.=493) is on record?
Answer: 106%

Question: What about the remaining activity at 3.75 µM ([1]; Well no.=7382) of the same compound?
Answer: 101%

Question: And the remaining activity at 1.25 µM ([2]; Well no.=493)?
Answer: 105%

Question: What about the remaining activity at 1.25 µM ([2]; Well no.=7382) of the same compound?
Answer: 97.2%

Question: Which results are given for `O=P1(NCCCl)OCCCN1CCCl` (stereo not drawn) [Ifosfamide]?
Answer: remaining activity at 3.75 µM ([1]; Well no.=2220): 98.6%; remaining activity at 1.25 µM ([2]; Well no.=2220): 97.2%

Question: How did the remaining activity at 3.75 µM ([1]; Well no.=8032) turn out when `C[N+]1(C)CCC[C@H]1C(=O)[O-]` [Stachydrine hydrochloride] was run?
Answer: 96.9%

Question: And the remaining activity at 1.25 µM ([2]; Well no.=8032)?
Answer: 98.3%

Question: `Nc1nc(O)c(C2=C3C(=Nc4ccccc43)C(=O)NCC2)[nH]1` [Chk2 Inhibitor] was tested. Which remaining activity at 3.75 µM ([1]; Well no.=2389) did it give?
Answer: 103%

Question: What about the remaining activity at 1.25 µM ([2]; Well no.=2389) of the same compound?
Answer: 103%

Question: Which remaining activity at 3.75 µM ([1]; Well no.=8486) does the source give for `N#CN=C(NCCCCCCOc1ccc(Cl)cc1)Nc1ccncc1` [GMX1778 (CHS828)] here?
Answer: 95.9%

Question: What about the remaining activity at 1.25 µM ([2]; Well no.=8486) of the same compound?
Answer: 93.1%

Question: `CC(C)NNC(=O)c1ccncc1` [Iproniazid phosphate] was tested. Which remaining activity at 3.75 µM ([1]; Well no.=775) did it give?
Answer: 105%

Question: And the remaining activity at 1.25 µM ([2]; Well no.=775)?
Answer: 104%

Question: With `CC(=O)N[C@@H](CS)C(=O)O` [N-Acetyl-L-Cysteine] as the compound, how does the remaining activity at 3.75 µM ([1]; Well no.=4) read?
Answer: 97.6%

Question: What about the remaining activity at 1.25 µM ([2]; Well no.=4) of the same compound?
Answer: 98.3%

Question: `COc1ccc(Cl)c(Nc2nc3ccccc3nc2NS(=O)(=O)c2cccc(NC(=O)C(C)(C)N)c2)c1` [XL147] was tested. Which remaining activity at 3.75 µM ([1]; Well no.=4669) did it give?
Answer: 106%

Question: What about the remaining activity at 1.25 µM ([2]; Well no.=4669) of the same compound?
Answer: 105%

Question: What does the source list for `N[C@@H]1CN(c2c(F)cc3c(=O)c(C(=O)O)cn([C@@H]4C[C@@H]4F)c3c2Cl)CC12CC2` [Sitafloxacin hydrate]?
Answer: remaining activity at 3.75 µM ([1]; Well no.=4770): 93.3%; remaining activity at 1.25 µM ([2]; Well no.=4770): 97.9%

Question: What does the source list for `COC(=O)Nc1nc2cc([S+]([O-])c3ccccc3)ccc2[nH]1` (stereo not drawn) [Oxfendazole]?
Answer: remaining activity at 3.75 µM ([1]; Well no.=2059): 105%; remaining activity at 1.25 µM ([2]; Well no.=2059): 105%

Question: `CC(C)[C@H](CO)Nc1nc(Nc2cc(N)cc(Cl)c2)c2ncn(C(C)C)c2n1` [Aminopurvalanol A - (2R)-2-[[6-[(3-Amino-5-chlorophenyl)amino]-9-(1-methylethyl)-9H-purin-2-yl]amino]-3-methyl-1-butanol] was tested. Which remaining activity at 3.75 µM ([1]; Well no.=2484) did it give?
Answer: 108%

Question: What about the remaining activity at 1.25 µM ([2]; Well no.=2484) of the same compound?
Answer: 101%

Question: What does the source list for `CCCCCCOC(=O)NC(=N)c1ccc(NCc2nc3cc(C(=O)N(CCC(=O)OCC)c4ccccn4)ccc3n2C)cc1` [Dabigatran Etexilate]?
Answer: remaining activity at 3.75 µM ([1]; Well no.=8192): 82.3%; remaining activity at 1.25 µM ([2]; Well no.=8192): 95.6%

Question: `COC1=CC(=O)O[C@@H](/C=C/c2ccc3c(c2)OCO3)C1` [Methysticin] was tested. Which remaining activity at 3.75 µM ([1]; Well no.=3565) did it give?
Answer: 108%

Question: And the remaining activity at 1.25 µM ([2]; Well no.=3565)?
Answer: 105%

Question: `CC1(C)CC(NC(=O)C(=O)Nc2ccc(Cl)cc2)CC(C)(C)N1` [N~1~-(4-chlorophenyl)-N~2~-(2,2,6,6-tetramethyl-4-piperidinyl)ethanediamide] was tested. Which remaining activity at 3.75 µM ([1]; Well no.=6039) did it give?
Answer: 101%

Question: What about the remaining activity at 1.25 µM ([2]; Well no.=6039) of the same compound?
Answer: 97.6%

Question: Which remaining activity at 3.75 µM ([1]; Well no.=2741) does the source give for `O=C(NOCC1CC1)c1ccc(F)c(F)c1Nc1ccc(I)cc1Cl` [CI-1040] here?
Answer: 102%

Question: What about the remaining activity at 1.25 µM ([2]; Well no.=2741) of the same compound?
Answer: 100%

Question: How did the remaining activity at 3.75 µM ([1]; Well no.=5603) turn out when `CN1CCN(CCCCN2C(=O)CN(/N=C/c3ccc(-c4ccc(Cl)cc4)o3)C2=O)CC1` [1-({(E)-[5-(4-chlorophenyl)-2-furyl]methylidene}amino)-3-[4-(4-methyl-1-piperazinyl)butyl]-2,4-imidazolidinedione dihydrochloride] was run?
Answer: 101%

Question: What about the remaining activity at 1.25 µM ([2]; Well no.=5603) of the same compound?
Answer: 97.6%

Question: For `Cc1ccc(C(=O)Nc2ccc(S(=O)(=O)O)c3cc(S(=O)(=O)O)cc(S(=O)(=O)O)c23)cc1NC(=O)c1cccc(NC(=O)Nc2cccc(C(=O)Nc3cc(C(=O)Nc4ccc(S(=O)(=O)O)c5cc(S(=O)(=O)O)cc(S(=O)(=O)O)c45)ccc3C)c2)c1` [Suramin (sodium salt)], which remaining activity at 3.75 µM ([1]; Well no.=8141) is on record?
Answer: 98.9%

Question: And the remaining activity at 1.25 µM ([2]; Well no.=8141)?
Answer: 105%

Question: Which results are given for `CC[C@@H]1C(=O)OC[C@@H]1Cc1cncn1C` [(+)-Pilocarpine hydrochloride]?
Answer: remaining activity at 3.75 µM ([1]; Well no.=1102): 96.8%; remaining activity at 1.25 µM ([2]; Well no.=1102): 96.5%
